Where two headings read alike, the source gives them in different places. Where a SMILES comes first, the peptide text is derived from it. [ ]: non-standard residue; d: D form. Hyp = O=C(O)[C@@H]1C[C@@H](O)CN1
Assays:
Pharmacokinetics in mice = type: in vivo; conditions: mouse; for Cmax / AUC: plasma LC/MS/MS; for half-life: in vivo
Protocol: AFPep (4 mg/kg) was administered by parenteral (i.v., s.c.) as well as oral routes to normal adult mice, dogs, and monkeys. Blood samples were obtained from anesthetized mice via the retroorbital plexus. Blood samples from dogs and monkeys were obtained through an indwelling catheter in the cephalic vein by the veterinarian staff at Albany Medical College. Dogs were awake and alert during sampling; monkeys were under anesthesia, as previously described. For the oral route, gavage was used in mice and monkeys; enteric capsules ([…]) containing AFPep were used and were readily swallowed by dogs. AFPep blood levels were measured using lliquid chromatography and mass spectrometry, as previously described.

[1] = 8-day repeat-dose study, AFPep blood levels in tumor-bearing dogs; type: in vivo, dog; conditions: for level at 0.5 h: female, dog, blood, sc, 10 mg
Excerpt: Previous studies utilizing repeat dosing in mice and rats established safe starting doses for studies using dogs. Female dogs with one or more spontaneously occurring mammary gland tumors greater than approximately 2 cm in maximum diameter, presenting to the Cancer Institute at the Schwarzman Animal Medical Center in New York City, were screened for inclusion in the study. […] All dogs underwent complete clinical staging, consisting of a complete blood count with cell differential, clinical chemistry, and urinalysis. Dogs were administered AFPep 10 mg s.c. once daily for 8 consecutive days. Tumors were biopsied prior to the administration of AFPep and were surgically removed on day 8 after the last injection of AFPep. Blood levels of AFPep were measured before and 30 minutes following its administration on the first day and eighth day of treatment with AFPep. Histopathology was obtained on all mammary gland tumors. Tolerability was assessed using the Veterinary Cooperative Oncology Group Common Terminology Criteria for Adverse Events. Blood chemistry and hematology analyses were performed at IDEXX Laboratories Inc. (Westbrook, ME, USA), using the Sysmex XT and Beckman AU 5800 systems. This study was approved by the Schwarzman Animal Medical Center IACUC and informed consent was obtained in writing from all owners.

[2] = tested on: Estrogen-induced mammary tumors; conditions: cited from earlier work
Excerpt: Table 1 The therapeutic and preventive efficacy of AFPep * in rodent models of mammary cancer. | column: Estrogen-Induced Mammary Tumors in ACI Rats ^3 || As models for preventive interventions, two widely used mammary cancer induction models in rats were studied to assess the cancer prevention capabilities of AFPep.

SMILES: CC(C)[C@@H]1NC(=O)[C@@H]2C[C@@H](O)CN2C(=O)[C@H]([C@@H](C)O)NC(=O)[C@H](CCCCN)NC(=O)[C@H](CCC(=O)O)NC(=O)[C@H](CC(N)=O)NC(=O)CNC(=O)[C@@H]2C[C@@H](O)CN2C(=O)[C@H](CC(N)=O)NC1=O [AFPep] (cyclo(EKT[Hyp]VN[Hyp]GN))
- Cmax (Pharmacokinetics in mice; iv, 4 mg/kg (100 µg/mouse), non-linear regression, first-order PK model): 12 µg/mL
- AUC (Pharmacokinetics in mice; iv, 4 mg/kg): 4.2 µg·h/mL
- half-life (Pharmacokinetics in mice; iv, 4 mg/kg): 11 min
- half-life (Pharmacokinetics in mice; po): 6.3 min
- half-life (Pharmacokinetics in mice; sc, 4 mg/kg): 11 min
- AUC (Pharmacokinetics in mice; po, p.o. gavage, 4 mg/kg per footnote (100 mg/kg orally)): 0.08 µg·h/mL
- Cmax (Pharmacokinetics in mice; po, p.o. gavage, 4 mg/kg per footnote (escalated to 100 mg/kg orally)): 0.14 µg/mL
- AUC (Pharmacokinetics in mice; sc, 4 mg/kg): 3.45 µg·h/mL
- Cmax (Pharmacokinetics in mice; sc, 4 mg/kg): 6.4 µg/mL
- AFPep blood level, Day 8 Pre-Treatment ([1]; Chihuahua, 7.53 kg, 10 mg s.c. once daily for 8 days, single animal): 0 ng/mL
- AFPep blood level, Day 8 Pre-Treatment ([1]; Pitbull, 30.2 kg, 10 mg s.c. once daily for 8 days, single animal): 0 ng/mL
- AFPep blood level, Day 8 Pre-Treatment ([1]; Pomeranian, 7.98 kg, 10 mg s.c. once daily for 8 days, single animal): 0 ng/mL
- AFPep blood level, Day 8 Pre-Treatment ([1]; Shih tzu, 11.02 kg, 10 mg s.c. once daily for 8 days, single animal): 0 ng/mL
- AFPep blood level, Day 8 Pre-Treatment ([1]; Yorkshire terrier, 5.86 kg, 10 mg s.c. once daily for 8 days, single animal): 0 ng/mL
- level at 0.5 h ([1]; Pomeranian, Pomeranian, 7.98 kg, 30 min after 10 mg s.c., single animal, read-out: AFPep blood level, Day 1 Post-Treatment): 2.4 µg/mL
- level at 0.5 h ([1]; Pomeranian, Pomeranian, 7.98 kg, 30 min after dose, 10 mg s.c. once daily for 8 days, single animal, read-out: AFPep blood level, Day 8 Post-Treatment): 2.1 µg/mL
- level at 0.5 h ([1]; Poodle mix, Poodle mix, 5.80 kg, 30 min after 10 mg s.c., single animal, read-out: AFPep blood level, Day 1 Post-Treatment): 4.4 µg/mL
- level at 0.5 h ([1]; Poodle mix, Poodle mix, 5.80 kg, 30 min after dose, 10 mg s.c. once daily for 8 days, single animal, read-out: AFPep blood level, Day 8 Post-Treatment): 5 µg/mL
- level at 0.5 h ([1]; Yorkshire terrier, Yorkshire terrier, 5.86 kg, 30 min after 10 mg s.c., single animal, read-out: AFPep blood level, Day 1 Post-Treatment): 2.2 µg/mL
- level at 0.5 h ([1]; Yorkshire terrier, Yorkshire terrier, 5.86 kg, 30 min after dose, 10 mg s.c. once daily for 8 days, single animal, read-out: AFPep blood level, Day 8 Post-Treatment): 1.9 µg/mL
- level at 0.5 h ([1]; diverse breeds, Mean ± S.D. of 6 tumor-bearing dogs, 30 min after 10 mg s.c., first day, read-out: AFPep blood level, Day 1 Post-Treatment): 3.6 ± 1.2 µg/mL
- level at 0.5 h ([1]; diverse breeds, Mean ± S.D. of 6 tumor-bearing dogs, 30 min after the day-8 dose, 10 mg s.c. once daily for 8 days, read-out: AFPep blood level, Day 8 Post-Treatment): 2.5 ± 0.6 µg/mL
- level at 0.5 h ([1]; summary of Table 6, 30 minutes post-AFPep, 10 mg s.c. once a day for 8 days, 6 tumor-bearing dogs, read-out: AFPep blood levels): 2 to 3 µg/mL
- Estrogen-Induced Mammary Tumors in ACI Rats, % of Rats with Tumors ([2]; estradiol Silastic implant, AFPep s.c. once daily, p < 0.05): 48 * %
- latency period of cancer appearance ([2]; hormone-induced model): prolonged

From publication PMC9913752, “Proof-of-Concept Study of an Alpha-Fetoprotein-Derived Peptide for the Management of Canine Mammary Cancer” (Animals : an Open Access Journal from MDPI, 2023)
